# Experimental data from article PMC8470823, “8-Amino-6-Methoxyquinoline—Tetrazole Hybrids: Impact of Linkers on Antiplasmodial Activity” (Molecules, 2021).
# pIC50: −log10 of the molar value. Where two headings read alike, the source gives them in different places.
# Assays:
# [1] = In vitro cytotoxicity with L-6 cells (Alamar Blue); assay type: cell-based, rat
# Procedure: (§1) Serial drug dilutions of 11 3-fold dilution steps covering a range from 100 to 0.002 μg/mL were prepared. After 70 h of incubation, the plates were inspected under an inverted microscope to assure the growth of the controls and sterile conditions. Then, 0.01 mL of Alamar Blue was added to each well and the plates incubated for another 2 h. The plates were read with a Spectramax Gemini XS microplate fluorometer (Molecular Devices Cooperation, Sunnyvale, CA, USA) using an excitation wavelength of 536 nm and an emission wavelength of 588 nm. The IC50 values were calculated by linear regression from the sigmoidal dose inhibition curves using SoftmaxPro software (Molecular Devices Cooperation, Sunnyvale, CA, USA). Podophyllotoxin (Sigma P4405) was used as control.
# [2] = system: P. falciparum NF54; assay: In vitro microplate assay against P. falciparum (3H-hypoxanthine incorporation); assay type: cell-based, Plasmodium falciparum; settings: for S.I. = IC50 (Cyt.)/IC50 (P.f. NF54): selectivity index: L-6 cells IC50 / P.f. NF54 IC50
# Procedure: Chloroquine (Sigma C6628) was used as standard. Compounds were dissolved in DMSO at 10 mg/mL and added to parasite cultures incubated in RPMI 1640 medium without hypoxanthine, supplemented with HEPES (5.94 g/L), NaHCO3 (2.1 g/L), neomycin (100 U/mL), Albumax (5 g/L) and washed human red cells A^+ at 2.5% hematocrit (0.3% parasitemia). Serial drug dilutions of 11 3-fold dilution steps covering a range from 100 to 0.002 μg/mL were prepared. […] After 48 h, 0.05 mL of ^3H-hypoxanthine (=0.5 μCi) was added to each well of the plate. The plates were incubated for a further 24 h under the same conditions. The plates were then harvested with a Betaplate cell harvester (Wallac, Zurich, Switzerland). The red blood cells were transferred onto a glass fiber filter and washed with distilled water. The dried filters were inserted into a plastic foil with 10 mL of scintillation fluid and counted in a Betaplate liquid scintillation counter (Wallac, Zurich, Switzerland). IC50 values were calculated from sigmoidal inhibition curves by linear regression using Microsoft Excel. Artemisinin and chloroquine were used as control.
# [3] = system: L-6 cells; assay: In vitro cytotoxicity with L-6 cells (Alamar Blue); assay type: cell-based, rat
# Procedure: as §1
# [4] = rat skeletal myoblasts, average of four determinations, read-out: Cytotoxicity L-6 Cells IC50
# [5] = rat, Cytotoxicity L-6 Cells IC50
# [6] = Plasmodium falciparum, chloroquine-sensitive strain NF54, erythrocytic stages, average of four determinations, read-out: P.f. NF54 IC50
Compound,S.I. = IC50 (Cyt.)/IC50 (P.f. NF54) [2],"IC50 at 72 h [1, 5] [µM]","pIC50 [2, 6]",also measured
"CCN(CC)CCCC(C)Nc1ccnc2cc(Cl)ccc12 (stereo not drawn) [CQ, chloroquine, reference compound]","23,313",,,"IC50 at 72 h [1, 4]: 90.9 µM; pIC50 ([2]; Plasmodium falciparum, NF54, read-out: P.f. NF54 IC50): 8.41"
"CCC(NCCNc1cc(OC)cc2cccnc12)c1nnnn1C(C)(C)C (stereo not drawn) [Compound 7, N^1-(6-Methoxyquinolin-8-yl)-N^2-(1-(tert-butyl-1H-tetrazol-5-yl)propyl)ethan-1,2-diamine]",,144,4.80,
"COc1cc(NCCNC(c2ccccc2)c2nnnn2C(C)(C)C)c2ncccc2c1 (stereo not drawn) [Compound 8, N^1-(6-Methoxyquinolin-8-yl)-N^2-((phenyl)(tert-butyl-1H-tetrazol-5-yl)methyl)ethan-1,2-diamine]",9.52,58,5.22,
"COc1cc(NCCNC(c2ccc(F)cc2)c2nnnn2C(C)(C)C)c2ncccc2c1 (stereo not drawn) [Compound 9, N^1-((4-Fluorophenyl)(tert-butyl-1H-tetrazol-5-yl)methyl)-N^2-(6-methoxyquinolin-8-yl)ethan-1,2-diamine]",7.86,55.4,5.15,
"COc1cc(NCCNC(c2ccc(Cl)cc2)c2nnnn2C(C)(C)C)c2ncccc2c1 (stereo not drawn) [Compound 10, N^1-((4-Chlorophenyl)(tert-butyl-1H-tetrazol-5-yl)methyl)-N^2-(6-methoxyquinolin-8-yl)ethan-1,2-diamine]",17.29,92.3,5.27,
"COc1cc(NCCNC(c2ccc(Br)cc2)c2nnnn2C(C)(C)C)c2ncccc2c1 (stereo not drawn) [Compound 11, N^1-((4-Bromophenyl)(tert-butyl-1H-tetrazol-5-yl)methyl)-N^2-(6-methoxyquinolin-8-yl)ethan-1,2-diamine]",13.57,34.1,5.60,
"CCC(Nc1cc(OC)cc2cccnc12)c1nnnn1C(C)(C)C (stereo not drawn) [Compound 13, 6-Methoxy-N-(1-(1-tert-butyl-1H-tetrazol-5-yl)propyl)quinolin-8-amine]",3.86,91.1,4.63,
"COc1cc(NC(c2ccccc2)c2nnnn2C(C)(C)C)c2ncccc2c1 (stereo not drawn) [Compound 14, 6-Methoxy-N-((phenyl)(1-tert-butyl-1H-tetrazol-5-yl)methyl)quinolin-8-amine]",9.56,49,5.29,
"COc1cc(NC(c2ccc(F)cc2)c2nnnn2C(C)(C)C)c2ncccc2c1 (stereo not drawn) [Compound 15, N-((4-Fluorophenyl)(1-tert-butyl-1H-tetrazol-5-yl)methyl)-6-methoxyquinolin-8-amine]",,119 to 124,5.57,"pIC50 ([3]; rat, 72 h): 3.91"
"COc1cc(NC(c2ccc(Cl)cc2)c2nnnn2C(C)(C)C)c2ncccc2c1 (stereo not drawn) [Compound 16, N-((4-Chlorophenyl)(1-tert-butyl-1H-tetrazol-5-yl)methyl)-6-methoxyquinolin-8-amine]",318.3,236,6.13,
"COc1cc(NC(c2ccc(Br)cc2)c2nnnn2C(C)(C)C)c2ncccc2c1 (stereo not drawn) [Compound 17, N-((4-Bromophenyl)(1-tert-butyl-1H-tetrazol-5-yl)methyl)-6-methoxyquinolin-8-amine]",208.8,96.9,6.33,
"COc1cc(NC(c2ccc(C(F)(F)F)cc2)c2nnnn2C(C)(C)C)c2ncccc2c1 (stereo not drawn) [Compound 18, 6-Methoxy-N-((1-tert-butyl-1H-tetrazol-5-yl)(4-(trifluoromethyl)phenyl)methyl)quinolin-8-amine]",273.3,176,6.19,
"COc1cc(NC(c2ccc(C)cc2)c2nnnn2C(C)(C)C)c2ncccc2c1 (stereo not drawn) [Compound 19, 6-Methoxy-N-((4-methylphenyl)(1-tert-butyl-1H-tetrazol-5-yl)methyl)quinolin-8-amine]",238.9,248,5.98,
"COc1cc(NC(c2ccc(C(C)C)cc2)c2nnnn2C(C)(C)C)c2ncccc2c1 (stereo not drawn) [Compound 20, 6-Methoxy-N-((4-(propan-2-yl)phenyl)(1-tert-butyl-1H-tetrazol-5-yl)methyl)quinolin-8-amine]",,119 to 124,5.70,"pIC50 ([3]; rat, 72 h): 3.92"
"COc1cc(NC(c2cccc3ccccc23)c2nnnn2C(C)(C)C)c2ncccc2c1 (stereo not drawn) [Compound 21, 6-Methoxy-N-((naphthalen-1-yl)(1-tert-butyl-1H-tetrazol-5-yl)methyl)quinolin-8-amine]",137.6,173,5.90,
"CCCCCCCC(Nc1cc(OC)cc2cccnc12)c1nnnn1C(C)(C)C (stereo not drawn) [Compound 22, 6-Methoxy-N-(1-(1-tert-butyl-1H-tetrazol-5-yl)octyl)quinolin-8-amine]",168.9,54.7,6.49,
"COc1cc([C@@H]2c3cc4c(cc3[C@H](O)[C@H]3COC(=O)[C@H]23)OCO4)cc(OC)c1OC [POD, podophyllotoxin, reference compound]",,,,"pIC50 [3, 4]: 7.92"
"N^1-(6-Methoxyquinolin-8-yl)-N^2-((tert-butyl-1H-tetrazol-5-yl)(2-(trifluoromethyl)phenyl) methyl)-ethan-1,2-diamine [Compound 12]",7.64,,,"pIC50 [3]: 4.65; pIC50 ([2]; chloroquine-sensitive strain NF54, erythrocytic stages, average of four determinations, read-out: P.f. NF54 IC50): 5.53"
